Here are results for three molecules from ChEMBL document CHEMBL1151988, “Antineoplastic agents. 571. Total synthesis of bacillistatin 2” (2009).

SMILES strings stand for the structures. Converted amounts (≈) assume the structure as drawn.

For orientation: GI50 means the concentration giving 50% growth inhibition. A high value points to lower sensitivity of the cells.

Assay [1] has as its system P388. The experiment in a line: Cytotoxicity against mouse P388 cells. The class given is functional. The note with it: read-out: ED50 (the source's name).
Assay [2] concerns DU-145. Briefly: Cytotoxicity against human DU145 cells. The class given is functional.

Regarding `CC[C@H](C)[C@@H](OC(=O)[C@@H](NC(=O)[C@H](C)OCc1ccccc1)C(C)C)C(=O)N[C@@H](C(=O)O[C@@H](C)C(=O)N[C@H](C(=O)O[C@@H](C(=O)N[C@@H](C(=O)O[C@@H](C)C(=O)N[C@H](C(=O)O[C@H](CC(C)C)C(=O)N[C@@H](C(=O)OC(C)(C)C)C(C)C)C(C)C)C(C)C)[C@@H](C)CC)C(C)C)C(C)C`, the EC50 in assay [1] amounted to 2.1 µg/mL (≈ 1.59 µM).

For the molecule `CC[C@H](C)[C@@H](OC(=O)[C@@H](NC(=O)[C@H](C)O)C(C)C)C(=O)N[C@@H](C(=O)O[C@@H](C)C(=O)N[C@H](C(=O)O[C@@H](C(=O)N[C@@H](C(=O)O[C@@H](C)C(=O)N[C@H](C(=O)O[C@H](CC(C)C)C(=O)N[C@@H](C(=O)OC(C)(C)C)C(C)C)C(C)C)C(C)C)[C@@H](C)CC)C(C)C)C(C)C`, the EC50 in assay [1] worked out at 2 µg/mL (≈ 1.63 µM). As for `CC[C@H](C)[C@@H](OC(=O)[C@@H](NC(=O)[C@H](C)OC(=O)[C@H](NC(=O)[C@H](OC(=O)[C@@H](NC(=O)[C@@H](C)OCc1ccccc1)C(C)C)[C@@H](C)CC)C(C)C)C(C)C)C(=O)N[C@@H](C(=O)OC(C)(C)C)C(C)C`, the GI50 in assay [2] amounted to 10.5 µg/mL (≈ 11.3 µM).
